Measurements reported in patent US12122736B2, “Salty taste-enhancing agent and manufacturing method therefor, and salty taste-enhancing method” (NISSIN FOODS HOLDINGS CO., LTD., priority 2012, dated 2024).

What was measured:
[1] = Sensory evaluation of salty taste-enhancing action in salt aqueous solution (Example 1); details: 0.150 wt % evaluation sample and 0.700 wt % sodium chloride in distilled water; compared with 0.700-0.840 wt % saline
Procedure: The salty taste-enhancing action may be evaluated by a sensory test.
Each evaluation sample and sodium chloride (salt) were dissolved in distilled water to prepare an aqueous solution containing 0.150 wt % of the evaluation sample and 0.700 wt % of sodium chloride, which was used as an evaluation solution. In addition, solutions containing 0.700 wt %, 0.735 wt %, 0.770 wt %, 0.805 wt %, and 0.840% of sodium chloride were used as comparative objects.

[2] = Sensory evaluation of relationship between addition concentration and salty taste-enhancing action (Example 2); details: for Salty taste-enhancing effect: 0.700 wt % sodium chloride
Procedure: 3-Guanidino-1-propanol hydrochloride obtained in Synthesis Example 2 was evaluated for its relationship between an addition concentration and a salty taste-enhancing action.
3-Guanidino-1-propanol hydrochloride and sodium chloride (salt) were dissolved in distilled water to prepare an aqueous solution containing 1.5 ppm (0.00015 wt %), 15 ppm (0.0015 wt %), 150 ppm (0.015 wt %), or 1,500 ppm (0.15 wt %) of 3-guanidino-1-propanol hydrochloride and 0.700 wt % of sodium chloride, which was used as an evaluation solution. In addition, solutions containing 0.700 wt %, 0.735 wt %, 0.770 wt %, 0.805 wt %, and 0.840 wt % of sodium chloride were used as comparative objects.

With `N=C(N)NCCCO` [Example 14] the Salty taste-enhancing effect [1] was “++++ (exhibiting a salty taste equal to or stronger than that of 0.840 wt % saline (exhibiting a salty taste-enhancing effect of 20% or more))”.

For `N=C(N)NCCCCCC(=O)O` [6-Guanidinocaproic acid], the Salty taste-enhancing effect [1] was “+ (exhibiting a salty taste equal to or stronger than that of 0.735 wt % saline (exhibiting a salty taste-enhancing effect of 5% or more))”.

For `N=C(N)NCCC(=O)O` [β-Guanidinopropanoic acid], the Salty taste-enhancing effect [1] was “++ (exhibiting a salty taste equal to or stronger than that of 0.770 wt % saline (exhibiting a salty taste-enhancing effect of 10% or more))”.

For `Cl.N=C(N)NCCCO` [Synthesis Example 2, 3-Guanidino-1-propanol hydrochloride], the “addition concentration at which a salty taste-enhancing action was exhibited” value ([2]; 0.700 wt % sodium chloride aqueous solution) was at least 15 ppm, the Salty taste-enhancing effect ([2]; addition concentration 1.5 ppm (0.00015%)) was “± (exhibiting a salty taste weaker than that of 0.735 wt % saline (exhibiting a salty taste-enhancing effect of less than 5%))” and the Salty taste-enhancing effect ([2]; addition concentration 15 ppm (0.0015%)) was “+ (exhibiting a salty taste equal to or stronger than that of 0.735 wt % saline (exhibiting a salty taste-enhancing effect of 5% or more))”. The Salty taste-enhancing effect ([2]; addition concentration 150 ppm (0.015%)) was “++ (exhibiting a salty taste equal to or stronger than that of 0.770 wt % saline (exhibiting a salty taste-enhancing effect of 10% or more))” and the Salty taste-enhancing effect ([2]; addition concentration 1,500 ppm (0.15%)) was “++++ (exhibiting a salty taste equal to or stronger than that of 0.840 wt % saline (exhibiting a salty taste-enhancing effect of 20% or more))”.

In the case of `Cl.N=C(N)N` [Guanidine hydrochloride], the Salty taste-enhancing effect [1] is reported as “+++ (exhibiting a salty taste equal to or stronger than that of 0.805 wt % saline (exhibiting a salty taste-enhancing effect of 15% or more))”.
